# Assay results from PubChem BioAssay AID1205 (EPA DSSTox, 2008).
# Calls of active or inactive are those of the source.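 The calls were made as follows: active = tumour findings in long-term animal cancer tests in more than one sex, species or organ; inactive = no tumour finding and more than one negative test.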
# Test: DSSTox (CPDBAS) Carcinogenic Potency Database Summary MultiCellCall Results
# Settings: animal carcinogenicity bioassays, multi-cell call summary
# Text: The Carcinogenic Potency Database (CPDB) is a unique and widely used international resource of the results of over 6500 chronic, long-term animal cancer tests on over 1500 chemical substances. The CPDB provides easy access to the bioassay literature, with qualitative and quantitative analyses of both positive and negative experiments that have been published over the past 50 years in the general literature and by the National Cancer Institute/National Toxicology Program. The CPDB standardizes the diverse literature of cancer bioassays that vary widely in protocol, histopathological examination and nomenclature, and in the published author's choices of what information to provide in their papers. Results are reported in the CPDB for tests in rats, mice, hamsters, dogs, and nonhuman primates, and are based on the most positive result among all experiments for each sex-species. The DSSTox CPDBAS (all species) file incorporates data from the CPDB Summary Tables for the full list of over 1500 chemical substances tested in at least one species. A summary MultiCellCall, based on experimental bioassay results of one or more species, is provided in the DSSTox CPDBAS file (see Source URL) for more than 1150 chemical substances.
# Associated TD50 values and tumor site details for the relevant species/sex experiment supporting the overall CPDBAS MultiSiteCall are provided in the full DSSTox CPDBAS file (see Comment) and the corresponding CPDBAS Species Bioassay in PubChem. ActivityScore is computed as follows: multispecies=50, multisex=30, multisite=20, with combination scores computed as sums of these values, e.g. multispecies+multisite=70.
row,Structure (SMILES),outcome
1,CC(=O)NNc1ccccc1,active; multisex active
2,CCN(CC)C(=O)/C(Cl)=C(\C)OP(=O)(OC)OC,inactive; multisex inactive
3,C/C=C/c1ccc2c(c1)OCO2,inactive; multisex inactive
4,CCN=[N+]([O-])CC,active; multisite active
5,Nc1ccc(-c2ccc(N)c(Cl)c2)cc1Cl,active; multisite active; multisex active; multispecies active
6,O=NN1CCCCCCCCCCCC1,active; multisex active
7,Nc1c(Cl)cc([N+](=O)[O-])cc1Cl,inactive; multisex inactive
8,CN=C(NC#N)NCCSCc1nc[nH]c1C,inactive; multisex inactive; multispecies inactive
9,Cc1ccc2c(c1)C(N1CCN(C)CC1)=Nc1ccccc1S2,inactive; multisex inactive
10,O=NN(CCCC(F)(F)F)CCCC(F)(F)F,active; multisite active; multisex active
11,O=NN1CCCC1,active; multisite active; multisex active; multispecies active
12,CN(C)C(=O)Nc1ccc(Cl)cc1,active; multisite active
13,O=C(Nc1nc(-c2ccc([N+](=O)[O-])o2)cs1)C(F)(F)F,active; multisite active; multispecies active
14,IC(I)I,inactive; multisex inactive; multispecies inactive
15,O.O=S(=O)([O-])[O-].[Mn+2],inactive; multisex inactive; multispecies inactive
16,OC[C@@H](O)[C@@H](O)[C@H](O)[C@H](O)CO[C@H]1O[C@H](CO)[C@@H](O)[C@H](O)[C@H]1O,inactive; multisex inactive
17,C[C@@H]1C/C=C/C=C/C=C/C=C/[C@H](O[C@@H]2O[C@H](C)[C@@H](O)[C@H](N)[C@@H]2O)C[C@@H]2O[C@](O)(C[C@@H](O)C[C@H]3O[C@@H]3/C=C/C(=O)O1)C[C@H](O)[C@H]2C(=O)O,inactive; multisex inactive
18,CN(C)C(=O)Nc1ccc(Cl)c(Cl)c1,inactive; multisex inactive
19,C=CC=O,inactive; multisex inactive; multispecies inactive
20,Nc1ccc(N=Nc2ccc(-c3ccc(N=Nc4c(S(=O)(=O)O)cc5cc(S(=O)(=O)O)c(N=Nc6ccccc6)c(O)c5c4N)cc3)cc2)c(N)c1,active; multisite active; multisex active; multispecies active
21,COC(=O)[C@H]1[C@H]2C[C@@H]3c4[nH]c5cc(OC)ccc5c4CCN3C[C@H]2C[C@@H](OC(=O)c2cc(OC)c(OC)c(OC)c2)[C@@H]1OC,active; multisite active; multisex active; multispecies active
22,CCCCCN(N=O)C(=O)OCC,active; multisite active
23,CCCCN(CCCCO)N=O,active; multisite active; multisex active

row,Structure (SMILES),outcome
1,C[N+](=O)[O-],active; multisite active; multisex active; multispecies active
2,CCOC(N)=O,active; multisite active; multisex active; multispecies active
3,P,inactive; multisex inactive
4,[S-]c1nc2ccccc2s1.[S-]c1nc2ccccc2s1.[Zn+2],inactive; multisex inactive
5,ClCc1cccnc1,active; multisex active; multispecies active
6,O=NN1CCCCCCC1,active; multisite active
7,COC1=CC(=O)C[C@@H](C)[C@]12Oc1c(Cl)c(OC)cc(OC)c1C2=O,active; multisite active; multisex active
8,C1CCCNCCC1,inactive; multisex inactive
9,CC[N+](=O)[O-],inactive; multisex inactive
10,Cc1ccc2ccccc2c1,inactive; multisex inactive
11,O=NN1CCC[C@H]1C(=O)O,inactive; multisex inactive
12,C=CCN(N=O)C(N)=O,active; multisite active; multisex active
13,ClC1=C(Cl)[C@]2(Cl)[C@@H]3[C@@H]4C[C@@H]([C@H]5O[C@@H]45)[C@@H]3[C@@]1(Cl)C2(Cl)Cl,active; multisex active
14,FC(F)OC(F)(F)C(F)Cl (stereo unspecified),inactive; multisex inactive
15,O=NN1CCC(=O)NC1=O,active; multisex active
16,F,inactive; multisex inactive; multispecies inactive
17,C=Cc1ccccc1,active; multisite active; multisex active; multispecies active
18,COc1cc(NC(=O)C(N=Nc2ccc(-c3ccc(N=NC(C(C)=O)C(=O)Nc4cc(OC)c(Cl)cc4OC)c(Cl)c3)cc2Cl)C(C)=O)c(OC)cc1Cl (stereo unspecified),inactive; multispecies inactive
19,COc1ccc(CCN2CCC(Nc3nc4ccccc4n3Cc3ccc(F)cc3)CC2)cc1,inactive; multisex inactive; multispecies inactive
20,Cc1noc(NS(=O)(=O)c2ccc(N)cc2)c1C,inactive; multisex inactive; multispecies inactive
21,CN(CC(O)CO)N=O (stereo unspecified),active; multisite active; multispecies active
22,Nc1ccc2oc3ccccc3c2c1,active; multisite active; multisex active
23,C[C@]12CCC(=O)C=C1CC[C@@H]1[C@@H]2[C@@H](O)C[C@@]2(C)[C@H]1CC[C@]2(O)C(=O)CO,inactive; multisex inactive

row,Structure (SMILES),outcome
1,C=CC=C,active; multisite active; multisex active; multispecies active
2,CCC1(c2ccccc2)C(=O)NC(=O)NC1=O,active; multisex active
3,NC(=O)CCCCC(N)=O,inactive; multisex inactive; multispecies inactive
4,Cc1cc(C(C)(C)C)c(O)c(C(C)(C)C)c1,active; multisite active
5,Cc1cccc(Nc2cc(Cl)nc(SCC(=O)O)n2)c1C,active; multispecies active
6,Cc1ccc(N=Nc2c(O)ccc3ccccc23)c([N+](=O)[O-])c1,active; multisite active; multisex active; multispecies active
7,O=C(O)Cc1cccc2ccccc12,inactive; multisex inactive
8,CN(C)N,active; multisite active; multisex active; multispecies active
9,CCNC(=O)N(CCO)N=O,active; multisite active; multisex active
10,O=C(O)/C=C/c1ccc(O)c(O)c1,active; multisite active; multisex active; multispecies active
11,C=C1C[C@]23C[C@@]1(O)CC[C@H]2[C@@]12C=C[C@H](O)[C@@](C)(C(=O)O1)[C@H]2[C@@H]3C(=O)O,inactive; multisex inactive
12,O=C1Nc2ccc(Cl)cc2C(c2ccccc2)=NC1O (stereo unspecified),active; multisite active; multisex active
13,CC(O)COC(C)(C)C (stereo unspecified),active; multisex active
14,CC1CN(N=O)CC(C)N1C (stereo unspecified),active; multisite active; multisex active; multispecies active
15,CC(COc1ccccc1)N(CCCl)Cc1ccccc1 (stereo unspecified),active; multisex active; multispecies active
16,CC(=O)Nc1nnc(-c2ccc([N+](=O)[O-])o2)s1,active; multisite active; multispecies active
17,c1ccncc1,active; multisite active; multisex active; multispecies active
18,COc1ccc(C(=O)Nc2c(Cl)cncc2Cl)cc1OC1CCCC1,active; multisex active
19,CCC1C(=O)OCC1Cc1cncn1C (stereo unspecified),inactive; multisex inactive
20,Cc1ccc(C)c(N)c1,active; multisite active; multisex active; multispecies active
21,c1ccc2c(c1)[nH]c1ccccc12,active; multisite active; multisex active
22,Cc1cc(Cc2ccc(N)c(C)c2)ccc1N,active; multisite active; multisex active
23,OCl,inactive; multisex inactive; multispecies inactive

row,Structure (SMILES),outcome
1,Cn1cc(OCC(O)CNC(C)(C)C)c2ccccc2c1=O (stereo unspecified),inactive; multisex inactive; multispecies inactive
2,Oc1ccc(Cl)cc1Cl,inactive; multisex inactive; multispecies inactive
3,NNC(=O)c1ccncc1,active; multisite active; multisex active; multispecies active
4,CCOC(=O)C1OC1(C)c1ccccc1 (stereo unspecified),inactive; multisex inactive
5,O=C1CCCCC1,inactive; multisex inactive; multispecies inactive
6,N,inactive; multisex inactive
7,FC(F)(Cl)Cl,inactive; multisex inactive; multispecies inactive
8,Cc1cccc(C)c1NC(=O)CN1CCCC1=O,inactive; multisex inactive; multispecies inactive
9,Nc1nnc(-c2ccc([N+](=O)[O-])o2)o1,active; multisite active
10,CC1=C(C)C(=O)C(C(CCCCCC(=O)O)c2ccccc2)=C(C)C1=O (stereo unspecified),inactive; multisex inactive
11,N=C1C=CC(=C(c2ccc(N)cc2)c2ccc(N)cc2)C=C1,active; multisite active; multisex active; multispecies active
12,NC(=O)CCCCn1ccc(NC(N)=NCC(F)(F)F)n1,active; multisex active; multispecies active
13,OCN(CO)c1nc(N(CO)CO)nc(N(CO)CO)n1,active; multisite active
14,O=NN1CCSCC1,active; multisite active; multisex active
15,O=[N+]([O-])c1ccc(Oc2ccc(Cl)cc2Cl)cc1,active; multisite active; multisex active; multispecies active
16,CC(C)(c1ccc(O)cc1)c1ccc(O)cc1,inactive; multisex inactive; multispecies inactive
17,ClCC1CO1 (stereo unspecified),active; multisex active
18,O=C(O)CCCC/C=C(\c1ccccc1)c1cccnc1,inactive; multisex inactive; multispecies inactive
19,C=C(C)C#N,inactive; multisex inactive; multispecies inactive
20,C=C(F)F,inactive; multisex inactive
21,Cc1ncc([N+](=O)[O-])n1CCO,active; multisite active; multisex active; multispecies active
22,O=S(=O)([O-])[O-].[Cd+2],active; multisex active
